# Earlier results as cited in patent US20250231185A1, “Coronavirus T Cell Epitopes, Megapools and Uses Thereof” (La Jolla Institute for Immunology, priority 2021, published 2025).
# System: CD8+ T cells
# Conditions: CD8R (D) megapool epitopes; dominant = recognized by 3 or more donors/different studies; cited from earlier work
row,Substance,Dominant
1,1713 (DLKGKYVQI) [compound 1713],Yes (more dominant epitopes are defined by being recognized by 3 or more donors/different studies)
2,1807 (LLYDANYFL) [compound 1807],Yes (more dominant epitopes are defined by being recognized by 3 or more donors/different studies)
3,1755 (KMQRMLLEK) [compound 1755],Yes (more dominant epitopes are defined by being recognized by 3 or more donors/different studies)
4,1698 (KPRQKRTAT) [compound 1698],Yes (more dominant epitopes are defined by being recognized by 3 or more donors/different studies)
5,1728 (LYLQYIRKL) [compound 1728],Yes (more dominant epitopes are defined by being recognized by 3 or more donors/different studies)
6,1782 (VLAWLYAAV) [compound 1782],Yes (more dominant epitopes are defined by being recognized by 3 or more donors/different studies)
7,1781 (GTDLEGNFY) [compound 1781],Yes (more dominant epitopes are defined by being recognized by 3 or more donors/different studies)
8,1674 (RLFARTRSMW) [compound 1674],Yes (more dominant epitopes are defined by being recognized by 3 or more donors/different studies)
9,1801 (FVRATATIPI) [compound 1801],Yes (more dominant epitopes are defined by being recognized by 3 or more donors/different studies)
10,1763 (QEILGTVSW) [compound 1763],Yes (more dominant epitopes are defined by being recognized by 3 or more donors/different studies)
11,1739 (IVDTVSALV) [compound 1739],Yes (more dominant epitopes are defined by being recognized by 3 or more donors/different studies)
12,1748 (MMISAGFSL) [compound 1748],Yes (more dominant epitopes are defined by being recognized by 3 or more donors/different studies)
13,1678 (ATSRTLSYY) [compound 1678],Yes (more dominant epitopes are defined by being recognized by 3 or more donors/different studies)
14,1791 (NTCDGTTFTY) [compound 1791],Yes (more dominant epitopes are defined by being recognized by 3 or more donors/different studies)
15,1721 (VVDKYFDCY) [compound 1721],Yes (more dominant epitopes are defined by being recognized by 3 or more donors/different studies)
16,1760 (VTNNTFTLK) [compound 1760],Yes (more dominant epitopes are defined by being recognized by 3 or more donors/different studies)
17,1795 (ALRANSAVK) [compound 1795],Yes (more dominant epitopes are defined by being recognized by 3 or more donors/different studies)
18,1701 (AQFAPSASAF) [compound 1701],Yes (more dominant epitopes are defined by being recognized by 3 or more donors/different studies)
19,1687 (KMKDLSPRW) [compound 1687],Yes (more dominant epitopes are defined by being recognized by 3 or more donors/different studies)

# Same assay, conditions: CD8RE megapool peptides (non-spike SARS-CoV-2 antigens); dominant epitope Yes/No; cited from earlier work
row,Substance,Dominant
1,2954 (ISDYDYYRY) [compound 2954],Yes (more dominant epitopes are defined by being recognized by 3 or more donors/different studies)
2,2901 (SLVKPSFYV) [compound 2901],Yes (more dominant epitopes are defined by being recognized by 3 or more donors/different studies)
3,2941 (ILLNKHIDA) [compound 2941],Yes (more dominant epitopes are defined by being recognized by 3 or more donors/different studies)
4,2997 (PTDNYITTY) [compound 2997],Yes (more dominant epitopes are defined by being recognized by 3 or more donors/different studies)
5,3026 (NTCDGTTFTY) [compound 3026],Yes (more dominant epitopes are defined by being recognized by 3 or more donors/different studies)
6,3033 (YTELEPPCRF) [compound 3033],Yes (more dominant epitopes are defined by being recognized by 3 or more donors/different studies)
7,3040 (YLYALVYFL) [compound 3040],Yes (more dominant epitopes are defined by being recognized by 3 or more donors/different studies)
8,3011 (FLLNKEMYL) [compound 3011],Yes (more dominant epitopes are defined by being recognized by 3 or more donors/different studies)
9,2983 (MMISAGFSL) [compound 2983],Yes (more dominant epitopes are defined by being recognized by 3 or more donors/different studies)
10,2985 (NLWNTFTRL) [compound 2985],Yes (more dominant epitopes are defined by being recognized by 3 or more donors/different studies)
11,3010 (SLRPDTRYVL) [compound 3010],Yes (more dominant epitopes are defined by being recognized by 3 or more donors/different studies)
12,2936 (AQFAPSASAF) [compound 2936],Yes (more dominant epitopes are defined by being recognized by 3 or more donors/different studies)
13,2903 (GTITVEELK) [compound 2903],Yes (more dominant epitopes are defined by being recognized by 3 or more donors/different studies)

# Same assay, conditions: Nelde et al.; HLA-A*01:01 restricted; cited from earlier work
row,Substance,positive in donors tested
1,TTDPSFLGRY [nsp3 819-828],83%

# Same assay, conditions: Rha et al.; 37 of 112 and 2 of 40 patients; cited from earlier work
row,Substance,responses detected in patients
1,FIAGLIAIV [SEQ ID NO: 1520],5%

# Same assay, conditions: SARS-CoV-2-derived CD8 epitopes; dominant = recognized by 3 or more donors/different studies; cited from earlier work
row,Substance,Dominant
1,538 (ASAFFGMSR) [compound 538],Yes (more dominant epitopes are defined by being recognized by 3 or more donors/different studies)
2,557 (FSKQLQQSM) [compound 557],Yes (more dominant epitopes are defined by being recognized by 3 or more donors/different studies)
3,528 (QELIRQGTDYKHW) [compound 528],Yes (more dominant epitopes are defined by being recognized by 3 or more donors/different studies)

# Same assay, conditions: SARS-CoV-2 Ag S; T cell type recognizing the epitope; cited from earlier work
row,Substance,Restriction
1,1464 (CMTSCCSCLK) [compound 1464],CD8
2,1450 (NASVVNIQK) [compound 1450],CD8
3,1420 (RVDFCGKGY) [compound 1420],CD8
4,1301 (VGGNYNYLY) [compound 1301],CD8
5,1377 (ILPDPSKPSK) [compound 1377],CD8
6,1435 (TYVPAQEKNFT) [compound 1435],CD8
7,1372 (EVFAQVKQI) [compound 1372],CD8
8,1318 (YQPYRVVVL) [compound 1318],CD8
9,1448 (DSFKEELDKY) [compound 1448],CD8
10,1467 (EPVLKGVKL) [compound 1467],CD8
11,1376 (IYKTPPIKDF) [compound 1376],CD8

# Same assay, conditions: T cell subset (CD4 or CD8) recognizing the SARS-CoV-2-derived epitope; cited from earlier work
row,Substance,Restriction
1,553 (KTFPPTEPKKDKKK) [compound 553],CD8
2,538 (ASAFFGMSR) [compound 538],CD8
3,614 (RTNVYLAVF) [compound 614],CD8
4,505 (AGLPYGANK) [compound 505],CD8
5,592 (SELLTPLGI) [compound 592],CD8
6,607 (YLKLTDNVYIK) [compound 607],CD8
7,658 (FEYYHTTDPSF) [compound 658],CD8
8,596 (DDYQGKPLEF) [compound 596],CD8
9,646 (TSNPTTFHL) [compound 646],CD8
10,557 (FSKQLQQSM) [compound 557],CD8
11,676 (VRETMSYLF) [compound 676],CD8
12,576 (TVYEKLKPV) [compound 576],CD8
13,599 (VEVQPQLEM) [compound 599],CD8
14,677 (VMYMGTLSY) [compound 677],CD8
15,615 (AVFDKNLYDK) [compound 615],CD8
16,618 (KLVSSFLEM) [compound 618],CD8
17,647 (HLDGEVITF) [compound 647],CD8
18,654 (QVVDMSMTY) [compound 654],CD8
19,528 (QELIRQGTDYKHW) [compound 528],CD8
20,548 (LLNKHIDAY) [compound 548],CD8

# Same assay, conditions: T cell type (CD4 or CD8) recognizing the SARS-CoV-2 epitope; cited from earlier work
row,Substance,Restriction
1,919 (VPANSTVLSF) [compound 919],CD8
2,1093 (KLMGHFAWW) [compound 1093],CD8
3,972 (NVIPTITQM) [compound 972],CD8
4,1032 (VPQEHYVRI) [compound 1032],CD8
5,1013 (LTNDNTSRYW) [compound 1013],CD8
6,975 (YAISAKNRAR) [compound 975],CD8
7,1011 (YADVFHLYL) [compound 1011],CD8
8,1037 (IPARARVEC) [compound 1037],CD8
9,908 (AWPLIVTAL) [compound 908],CD8
10,1049 (LQLGFSTGV) [compound 1049],CD8
11,1078 (KPRSQMEIDF) [compound 1078],CD8
12,1080 (FIPMDSTVKNY) [compound 1080],CD8
13,987 (MASLVLARK) [compound 987],CD8
14,946 (STVFPPTSF) [compound 946],CD8
15,927 (NLIDSYFVV) [compound 927],CD8
16,1039 (YVFCTVNAL) [compound 1039],CD8
17,923 (VVYRAFDIY) [compound 923],CD8
18,955 (QTVKPGNFNK) [compound 955],CD8
19,965 (FVVEVVDKY) [compound 965],CD8
20,1079 (FIERYKLEGY) [compound 1079],CD8
21,1083 (SVVSKVVKV) [compound 1083],CD8
22,937 (DAMRNAGIV) [compound 937],CD8
23,1094 (SSEAFLIGCNY) [compound 1094],CD8
24,963 (YRYNLPTM) [compound 963],CD8
25,1014 (NTSRYWEPEFY) [compound 1014],CD8
